From patent US5525595A, “3- or 4-glycosyloxybenzopyran derivative and antiallergic agent containing the derivative as active ingredient” (priority 1993, dated 1996)

Assays:
[1] = background statement; cited from earlier work
[2] = test system: airway resistance in experimental asthma model; experiment: Effect on experimental asthma model in guinea pigs; assay type: in vivo, guinea pigs (Male hadley); conditions: Cavia porcellus, Table 7; for inhibition in vivo at 100 mg/kg: 100 mg/kg oral, OVA challenge, guinea pigs
Procedure, shortened: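 Male Hartley guinea pigs sensitized i.p. with 5 mg ovalbumin three times weekly, challenged 2 weeks later by 1 min inhalation of 1% OVA. Compounds dosed orally at 100 mg/kg in 0.5% CMCNa; airway resistance recorded 30 min, inhibition % from maximum resistance versus vehicle (n=5).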

[3] = test system: homologous passive cutaneous anaphylaxis (PCA) reaction; experiment: Effect on homologous passive cutaneous anaphylaxis (PCA) reaction in rats; assay type: in vivo, rats (Male wistar rats); conditions: Rattus norvegicus, 0.5 h; 100 mg/kg oral, 1 hour before antigen, rats; Table 3
Procedure, shortened: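 Male Wistar rats (9 weeks) sensitized intradermally with anti-TNP-ascaris serum; 48 h later compounds dosed orally at 100 mg/kg in 0.5% CMCNa, n=5 per group. Challenge 1 h post-dose with i.v. TNP-As plus Evans Blue; blue-spot diameter measured at 30 min, inhibition calculated versus vehicle group.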

[4] = test system: contact dermatitis induced by picryl chloride; experiment: Effect on contact dermatitis induced by picryl chloride in mice (delayed type hypersensitization); assay type: in vivo; conditions: Mus musculus; 100 mg/kg oral, ear thickness 24 hours after challenge; Table 6; read-out: Inhibition (%) against the increase of ear thickness
Procedure, shortened: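 Mice sensitized on abdomen with 7 mg picryl chloride, ear-challenged 7 days later with 1% picryl chloride; compounds dosed orally at 100 mg/kg in 0.5% CMCNa 1 h before and 16 h after challenge.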

Structure (SMILES)	gastrointestinal absorbability [1]	inhibition in vivo at 20 mg/kg ([2]; iv, positive control DSCG 20 mg/kg injected into the vein) [%]	inhibition in vivo at 100 mg/kg [3] [%]	inhibition in vivo at 100 mg/kg [2] [%]	inhibition in vivo at 100 mg/kg [4] [%]
O=C(O)c1cc(=O)c2c(OCC(O)COc3cccc4oc(C(=O)O)cc(=O)c34)cccc2o1 [DSCG, reference compound]	extremely poor	50.5	–	–	–
CCCCCCCCOc1ccc2c(O[C@H]3O[C@H](CO)[C@@H](O)[C@H](O)[C@@H]3O)c(O)c(=O)oc2c1 [compound 80]	–	–	50.5	63.3	50.3
CCCCCCCCCCOc1ccc2c(O[C@H]3O[C@H](CO)[C@@H](O)[C@H](O)[C@@H]3O)c(O)c(=O)oc2c1 [compound 81]	–	–	48.3	63.1	50.8
CCCCCCCCCCCCOc1ccc2c(O[C@H]3O[C@H](CO)[C@@H](O)[C@H](O)[C@@H]3O)c(O)c(=O)oc2c1 [compound 82]	–	–	47.3	55.1	48.7
CC(C)Oc1ccc2c(O[C@H]3O[C@H](CO)[C@@H](O)[C@H](O)[C@@H]3O)c(O)c(=O)oc2c1 [compound 83]	–	–	49.3	46.9	49.1
CCC=CCCOc1ccc2c(O[C@H]3O[C@H](CO)[C@@H](O)[C@H](O)[C@@H]3O)c(O)c(=O)oc2c1 [compound 84]	–	–	45.5	47.1	46.3
CC(C)=CCC/C(C)=C/COc1ccc2c(O[C@H]3O[C@H](CO)[C@@H](O)[C@H](O)[C@@H]3O)c(O)c(=O)oc2c1 [compound 85]	–	–	47.6	48.5	47.2
O=C(Oc1ccc2c(O[C@H]3O[C@H](CO)[C@@H](O)[C@H](O)[C@@H]3O)c(O)c(=O)oc2c1)c1ccccc1 [compound 86]	–	–	43	41.2	39.1
COc1ccc2c(O[C@H]3O[C@H](CO)[C@@H](O)[C@H](O)[C@@H]3O)c(OC(=O)c3ccccc3)c(=O)oc2c1 [compound 87]	–	–	44.7	42.5	42.4
CCCCOc1ccc2c(O[C@H]3O[C@H](CO)[C@@H](O)[C@H](O)[C@@H]3O)c(OC(C)=O)c(=O)oc2c1 [compound 88]	–	–	45.8	43.5	40.2
CCCCCCCCCCCCOc1ccc2c(O[C@H]3O[C@H](CO)[C@@H](O)[C@H](O)[C@@H]3O)c(OC(C)=O)c(=O)oc2c1 [compound 89]	–	–	43.7	43.2	41.2
O=c1oc2cc(OCc3ccccc3)ccc2c(O[C@H]2O[C@H](CO)[C@@H](O)[C@H](O)[C@@H]2O)c1O [compound 90]	–	–	45.3	40.5	38.4
O=c1oc2cc(O)ccc2c(O[C@@H]2O[C@H](CO)[C@H](O)[C@H](O)[C@H]2O)c1O [compound 91]	–	–	40.4	45.1	45.5
COc1ccc2c(O[C@@H]3O[C@H](CO)[C@H](O)[C@H](O)[C@H]3O)c(O)c(=O)oc2c1 [compound 92]	–	–	50.2	57.7	52.6
CCCCOc1ccc2c(O[C@@H]3O[C@H](CO)[C@H](O)[C@H](O)[C@H]3O)c(O)c(=O)oc2c1 [compound 93]	–	–	57.6	60.5	59.9
CCCCCCCCOc1ccc2c(O[C@@H]3O[C@H](CO)[C@H](O)[C@H](O)[C@H]3O)c(O)c(=O)oc2c1 [compound 94]	–	–	63.3	82.6	64.7

Structure (SMILES)	gastrointestinal absorbability [1]	inhibition in vivo at 20 mg/kg ([2]; iv, positive control DSCG 20 mg/kg injected into the vein) [%]	inhibition in vivo at 100 mg/kg [3] [%]	inhibition in vivo at 100 mg/kg [2] [%]	inhibition in vivo at 100 mg/kg [4] [%]
CCCCCCCCCCOc1ccc2c(O[C@@H]3O[C@H](CO)[C@H](O)[C@H](O)[C@H]3O)c(O)c(=O)oc2c1 [compound 95]	–	–	65.1	75.4	65.1
CCCCCCCCCCCCOc1ccc2c(O[C@@H]3O[C@H](CO)[C@H](O)[C@H](O)[C@H]3O)c(O)c(=O)oc2c1 [compound 96]	–	–	56.6	73.1	57.8
CC(C)Oc1ccc2c(O[C@@H]3O[C@H](CO)[C@H](O)[C@H](O)[C@H]3O)c(O)c(=O)oc2c1 [compound 97]	–	–	55.7	63.2	58.7
CCC=CCCOc1ccc2c(O[C@@H]3O[C@H](CO)[C@H](O)[C@H](O)[C@H]3O)c(O)c(=O)oc2c1 [compound 98]	–	–	60.2	72.8	61.2
CC(C)=CCC/C(C)=C/COc1ccc2c(O[C@@H]3O[C@H](CO)[C@H](O)[C@H](O)[C@H]3O)c(O)c(=O)oc2c1 [compound 99]	–	–	58.6	77.7	59.4
O=C(Oc1ccc2c(O[C@@H]3O[C@H](CO)[C@H](O)[C@H](O)[C@H]3O)c(O)c(=O)oc2c1)c1ccccc1 [compound 100]	–	–	42.6	67.8	44.9
COc1ccc2c(O[C@@H]3O[C@H](CO)[C@H](O)[C@H](O)[C@H]3O)c(OC(=O)c3ccccc3)c(=O)oc2c1 [compound 101]	–	–	45.2	56.2	47.2
CCCCOc1ccc2c(O[C@@H]3O[C@H](CO)[C@H](O)[C@H](O)[C@H]3O)c(OC(C)=O)c(=O)oc2c1 [compound 102]	–	–	46.3	50.3	46.3
CCCCCCCCCCCCOc1ccc2c(O[C@@H]3O[C@H](CO)[C@H](O)[C@H](O)[C@H]3O)c(OC(C)=O)c(=O)oc2c1 [compound 103]	–	–	51.1	65.3	48.3
O=c1oc2cc(OCc3ccccc3)ccc2c(O[C@@H]2O[C@H](CO)[C@H](O)[C@H](O)[C@H]2O)c1O [compound 104]	–	–	44.2	63.3	46.1
CC(=O)Oc1ccc2c(O[C@@H]3O[C@H](CO)[C@H](O)[C@H](O)[C@H]3O)c(O)c(=O)oc2c1 [compound 105]	–	–	51.4	58.8	47.8
CC(=O)Oc1ccc2c(O[C@H]3O[C@H](CO)[C@@H](O)[C@H](O)[C@@H]3O)c(O)c(=O)oc2c1 [compound 106]	–	–	42.2	46.2	40.1
CC(=O)Oc1ccc2c(O[C@@H]3O[C@H](CO)[C@@H](O)[C@H](O)[C@H]3O)c(O)c(=O)oc2c1 [compound 116]	–	–	48	55.3	45.1
CCCCCCOc1ccc2c(O[C@@H]3O[C@H](CO)[C@H](O)[C@H](O)[C@H]3O)c(O)c(=O)oc2c1 [compound 120]	–	–	64.3	78.9	65.2
CCCCCCOc1ccc2c(O[C@@H]3O[C@H](CO)[C@@H](O)[C@H](O)[C@H]3O)c(O)c(=O)oc2c1 [compound 121]	–	–	63.7	75.1	63.7
CCCCCCOc1ccc2c(O[C@H]3O[C@H](CO)[C@@H](O)[C@H](O)[C@@H]3O)c(O)c(=O)oc2c1 [compound 122]	–	–	52.3	62.1	53.2
